The values that follow come from patent US20120053534A1, “INTRAVAGINAL DEVICES COMPRISING ANTICHOLINERGIC AGENTS, AND METHODS OF MAKING THEREOF” (priority 2010, published 2012).

The data set can be described thus: in vivo. As to conditions: female, dog, plasma, po, 10 mg/day.

Each structure is given as a SMILES string.

Method: A study was conducted to determine the levels of oxybutynin and its active metabolite, N-desethyloxybutynin, present in plasma following oral and intravaginal administration of oxybutynin in dogs.
A 14 day study was conducted, where 8 young adult females were randomly assigned to 4 groups of 2 dogs each.

Compound `CCN(CC)CC#CCOC(=O)C(O)(c1ccccc1)C1CCCCC1` (stereo not shown) [oxybutynin, 4-diethylaminobut-2-ynyl2-cyclohexyl-2-hydroxy-2-phenyl-ethanoate] gave a Cmax of roughly 17.9 ng/mL.

One may read the Cmax as the maximum level reached in the sampled fluid or tissue.
